Experiment: recombinant barcode read abundance after kanamycin selection (control-corrected) (log10(CPM+1)); higher = more efficient recombination; sequences stand for … in AGTGCAGAGAAAATCGGCCAGTTTTCTCTGCCTGCAGTCCGCATGCCGT…AGATTTATGCAGCGGACTGCCTTTCTCCCAAAGTGATAAACCGGACAGTATCATGGACCGGTTTTCCCGGTAATCCGTATTTGCAAGGTTGGTTTCACT; site = the 11-nt target
Procedure, shortened: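 A promoter, a target, a barcode and the first 104 bridge RNA bases under J23119 made up each oligo. Oligos were Gibson-cloned into a vector bearing the other 73 bp and a T7-inducible recombinase, then co-electroporated into E. coli with a donor plasmid and plated in duplicate on chloramphenicol/ampicillin LB agar (control) or chloramphenicol/ampicillin/kanamycin with 0.1 mM IPTG. Recombination efficiency is the averaged, control-corrected counts per million of recombinant-junction barcodes. Reported values are log10(CPM+1).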
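Note: IS621 recombinase and bridge RNA in Escherichia coli cells.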

Sequence	recombinant barcode read abundance (log10)
TTCAAGGCTTGGGTTCTAACCTGTTGCCT (site TTCAAGACTAG)	0.0627
TTCAAGGCTTGGGTTCTAACCTGTTGCCT (site TTCAAGCCTAG)	0.118
TTCAAGGCTTGGGTTCTAACCTGTTGCCT (site TTCAAGGCTAG)	0.17
TTCAAGGCTTGGGTTCTAACCTGTTGCCT (site TTCAAGTCTAG)	0.461
TTCAAGTCTTGGGTTCTAACCTGTTGCGT (site TTCAACTCTAC)	0.0281
TTCAAGTCTTGGGTTCTAACCTGTTGCGT (site TTCAAGTCTAC)	1.33
TTCAATTCTTGGGTTCTAACCTGTTGCTT (site TATAATTCTAA)	0.00963
TTCAATTCTTGGGTTCTAACCTGTTGCTT (site TTCAATTCTAA)	0.0521
TTCCCTACTTGGGTTCTAACCTGTTGCCT (site CTCCCAACTAG)	0.102
TTCCCTACTTGGGTTCTAACCTGTTGCCT (site TTCCCTACTAG)	0.452
TTCCGAGCTTGGGTTCTAACCTGTTGCAG (site CCTACGCCTTG)	0.216
TTCCGAGCTTGGGTTCTAACCTGTTGCAG (site TTCCGAGCTCT)	0.873
TTCGGAGCTTGGGTTCTAACCTGTTGCTG (site TTCGGAGCTCA)	1.56
TTCGGAGCTTGGGTTCTAACCTGTTGCTG (site TTGGGAGCTCA)	0.0871
TTCGGCTCTTGGGTTCTAACCTGTTGCTA (site CGATCACCTAG)	0.0491
TTCGGCTCTTGGGTTCTAACCTGTTGCTA (site TTCGGCTCTTA)	0.605
TTCGTAGCTTGGGTTCTAACCTGTTGCGT (site TTCGTAGCTAC)	1.29
TTCGTAGCTTGGGTTCTAACCTGTTGCGT (site TTCGTAGCTAG)	0.285
TTCTACACTTGGGTTCTAACCTGTTGCAT (site GAACCTTCTCC)	0.107
TTCTACACTTGGGTTCTAACCTGTTGCAT (site TTCTACACTAT)	0.298
TTCTACTCTTGGGTTCTAACCTGTTGCCT (site CTCTACTCTAG)	0.75
TTCTACTCTTGGGTTCTAACCTGTTGCCT (site TTCTACTCTAG)	0.405

Sequence	recombinant barcode read abundance (log10)
TTCTCTCCTTGGGTTCTAACCTGTTGCCT (site TTCTATCCTAG)	0.0831
TTCTCTCCTTGGGTTCTAACCTGTTGCCT (site TTCTCTCCTAG)	0.206
TTCTCTCCTTGGGTTCTAACCTGTTGCCT (site TTCTGTCCTAG)	0.00855
TTCTCTCCTTGGGTTCTAACCTGTTGCCT (site TTCTTTCCTAG)	0.169
TTCTCTTCTTGGGTTCTAACCTGTTGCCT (site TTCTCTTCTAG)	0.0495
TTCTCTTCTTGGGTTCTAACCTGTTGCCT (site TTCTGTTCTAG)	0.103
TTCTGAACTTGGGTTCTAACCTGTTGCCT (site GTCTCAACTAG)	0.109
TTCTGAACTTGGGTTCTAACCTGTTGCCT (site TTCTGAACTAG)	0.126
TTCTTACCTTGGGTTCTAACCTGTTGCCT (site TACTTACCTAG)	0.0709
TTCTTACCTTGGGTTCTAACCTGTTGCCT (site TTCTTACCTAG)	0.654
TTCTTGCCTTGGGTTCTAACCTGTTGCCT (site TTATTGTCTAG)	0.111
TTCTTGCCTTGGGTTCTAACCTGTTGCCT (site TTCTTGCCTAG)	0.665
TTCTTTCCTTGGGTTCTAACCTGTTGCCT (site TTCTATCCTAG)	0.0663
TTCTTTCCTTGGGTTCTAACCTGTTGCCT (site TTCTCTCCTAG)	0.0684
TTCTTTCCTTGGGTTCTAACCTGTTGCCT (site TTCTGTCCTAG)	0.0839
TTCTTTCCTTGGGTTCTAACCTGTTGCCT (site TTCTTTCCTAG)	0.11
TTGACGACTTGGGTTCTAACCTGTTGCCA (site TTGACGACTTG)	0.36
TTGACGACTTGGGTTCTAACCTGTTGCCA (site TTGCCGACTTG)	0.217
TTGACGACTTGGGTTCTAACCTGTTGCCA (site TTGGCGACTTG)	0.116
TTGACGACTTGGGTTCTAACCTGTTGCCA (site TTGTCGACTTG)	0.0686
TTGACGGCTTGGGTTCTAACCTGTTGCCT (site CCATTCCCTTA)	0.041
TTGACGGCTTGGGTTCTAACCTGTTGCCT (site TTGACGGCTAG)	0.165

Sequence	recombinant barcode read abundance (log10)
TTGAGGACTTGGGTTCTAACCTGTTGCCT (site ATGAGGACTAG)	0.0377
TTGAGGACTTGGGTTCTAACCTGTTGCCT (site CTGAGGACTAG)	0.146
TTGAGGACTTGGGTTCTAACCTGTTGCCT (site GTGAGGACTAG)	0
TTGAGGACTTGGGTTCTAACCTGTTGCCT (site TTGAGGACTAG)	0.606
TTGAGGCCTTGGGTTCTAACCTGTTGCGG (site TCGAGTCCTCC)	0.141
TTGAGGCCTTGGGTTCTAACCTGTTGCGG (site TTGAGGCCTCC)	2.39
TTGAGTGCTTGGGTTCTAACCTGTTGCCT (site TTGAATGCTAG)	0.259
TTGAGTGCTTGGGTTCTAACCTGTTGCCT (site TTGACTGCTAG)	0.0508
TTGAGTGCTTGGGTTCTAACCTGTTGCCT (site TTGAGTGCTAG)	0.804
TTGAGTGCTTGGGTTCTAACCTGTTGCCT (site TTGATTGCTAG)	0.254
TTGATTGCTTGGGTTCTAACCTGTTGCCT (site TTGAATGCTAG)	0.0762
TTGATTGCTTGGGTTCTAACCTGTTGCCT (site TTGACTGCTAG)	0.0306
TTGATTGCTTGGGTTCTAACCTGTTGCCT (site TTGAGTGCTAG)	0.425
TTGATTGCTTGGGTTCTAACCTGTTGCCT (site TTGATTGCTAG)	0.497
TTGCGTGCTTGGGTTCTAACCTGTTGCTT (site TTGCGAGCTAT)	0.27
TTGCGTGCTTGGGTTCTAACCTGTTGCTT (site TTGCGTGCTAA)	0.518
TTGCTAGCTTGGGTTCTAACCTGTTGCGG (site GGAACTACTGT)	0.0762
TTGCTAGCTTGGGTTCTAACCTGTTGCGG (site TTGCTAGCTCC)	1.56
TTGGAAGCTTGGGTTCTAACCTGTTGCCT (site TTGGAAGCTAG)	2.1
TTGGAAGCTTGGGTTCTAACCTGTTGCCT (site TTGGCAGCTAG)	0.0513
TTGGAAGCTTGGGTTCTAACCTGTTGCCT (site TTGGGAGCTAG)	0.541
TTGGAAGCTTGGGTTCTAACCTGTTGCCT (site TTGGTAGCTAG)	2.19

Sequence	recombinant barcode read abundance (log10)
TTGGAGGCTTGGGTTCTAACCTGTTGCCT (site AGCAGTACTTA)	0.0388
TTGGAGGCTTGGGTTCTAACCTGTTGCCT (site TTGGAGGCTAG)	1.45
TTGGATCCTTGGGTTCTAACCTGTTGCCT (site TTGGATCCTAA)	0.382
TTGGATCCTTGGGTTCTAACCTGTTGCCT (site TTGGATCCTAG)	2.31
TTGGCGCCTTGGGTTCTAACCTGTTGCCT (site TCGGCTCCTAG)	0.0935
TTGGCGCCTTGGGTTCTAACCTGTTGCCT (site TTGGCGCCTAG)	0.529
TTGGGAGCTTGGGTTCTAACCTGTTGCCT (site TTGGAAGCTAG)	0.984
TTGGGAGCTTGGGTTCTAACCTGTTGCCT (site TTGGCAGCTAG)	0.11
TTGGGAGCTTGGGTTCTAACCTGTTGCCT (site TTGGGAGCTAG)	2.26
TTGGGAGCTTGGGTTCTAACCTGTTGCCT (site TTGGTAGCTAG)	0.442
TTGGGCGCTTGGGTTCTAACCTGTTGCCT (site TTGGACGCTAG)	0.0866
TTGGGCGCTTGGGTTCTAACCTGTTGCCT (site TTGGCCGCTAG)	0.154
TTGGGCGCTTGGGTTCTAACCTGTTGCCT (site TTGGGCGCTAG)	0.643
TTGGGCGCTTGGGTTCTAACCTGTTGCCT (site TTGGTCGCTAG)	0.0335
TTGGTCACTTGGGTTCTAACCTGTTGCCT (site TTGGACACTAG)	0.358
TTGGTCACTTGGGTTCTAACCTGTTGCCT (site TTGGCCACTAG)	0.309
TTGGTCACTTGGGTTCTAACCTGTTGCCT (site TTGGGCACTAG)	0.205
TTGGTCACTTGGGTTCTAACCTGTTGCCT (site TTGGTCACTAG)	2.1
TTGGTCGCTTGGGTTCTAACCTGTTGCCT (site TTGGACGCTAG)	0.0736
TTGGTCGCTTGGGTTCTAACCTGTTGCCT (site TTGGCCGCTAG)	1.4

From the supplement of paper PMC11208160
